Laboratory results: publication PMC9603521, “WYBQ-4: a New Bactericidal Agent against Methicillin-Resistant Staphylococcus aureus” (Microbiology Spectrum, 2022)
Values after ≈ are worked out from the molar mass of the structure shown. Read-outs that look alike come from different tables or passages of the source.

What was measured:
PBP2a = PBP2a (Staphylococcus aureus, UniProt P07944); test: PBP2a acylation kinetics, nitrocefin competition assay; type: biochemical, MRSA
Procedure: Please refer to the supplemental material for the kinetic parameters of the interaction between WYBQ-4 and PBP2a and the determination of the rate of diacylation.
Supplementary Method. 1 Determination of the Kinetic Parameters for Interactions of […]
Determination of the kinetic parameters for interactions of WYBQ-4 with PBP2a The kinetic parameters of the interaction of WYBQ-4 with PBP2a were determined as previously described (1). The kinetics of the reaction between PBP2a of MRSA with WYBQ-4 was studied in homogeneous aqueous solution at 37℃ in 25 mM Hepes buffer, pH 7.0, containing 1 M NaCl and the inhibition of PBPs by β-lactams follows this kinetic scheme. […]
In this minimal scheme, E represents PBP2a, EI is the noncovalent preacylation complex, E-I is the covalent acyl-enzyme species, and P denotes the product of E-I hydrolysis and restoration of […]
The typical reactions of β-lactam could be monitored through competition with a chromophoric β-lactam, nitrocefin, or directly in certain cases by fluorescence intensity of protein. In this study, it is proposed to determine the secondary rate constants (k2/Ks) of WYBQ-4 by nitrocefin competition assay. The reaction was conducted in the above buffer, and the reaction system contained PBP2a (2.5 μM) and different concentrations of nitrocefin (20-120 μM). The reaction was carried out in a UV spectrophotometer (PERSEE T600, China) and the change in absorbance at 500 nm was […]
Apparent first-order rate constants for acylation by nitrocefin were determined by fitting the change in absorbance with time to eqn. (1):
A = A0 + ∆εn E0[(1 − exp (−kn∗ t)] + k0N0∆εn Ε0t (1) where A0 is the initial absorbance at 500 nm, ∆εn the change in molar absorption coefficient on nitrocefin hydrolysis (15900 M-1cm-1), E0 the initial enzyme concentration, N0 the initial nitrocefin concentration, kn* the (burst) pseudo-first-order rate constant for acylation of PBP2a by nitrocefin, and k0 the (line) second-order rate constant of a non-specific hydrolysis of nitrocefin in the presence of PBP2a. The second-order rate constants (kn) for acylation were calculated by fitting a plot of the apparent first-order rate constants (kn*) against the concentration of nitrocefin using a linear least-squares method.
Subsequently, nitrocefin (100 μM) was used as a reporter molecule to determine the apparent first-order rate constants for acylation of WYBQ-4 at different concentrations (0-500 μM) in competition assays. In this case, the change in absorbance at 500 nm with time was fitted to eqn.
Α = A + ∆ε E (k∗ ∕ (k∗ + k∗)(1 − exp (−(k∗ + k∗)t)) + k N ∆ε Ε t (2) […]

MRSA USA300 = test: Mouse lung infection model, survival; type: in vivo, mice; conditions: mouse pneumonia, USA300 2 × 10^8 CFU, 12-h intervals, within 72 h
Procedure: The animal experiments were performed using 6-week-old male C57BL/6J mice, and the mouse model of lung infection caused by MRSA USA300 was established as previously described ([43], [44]). For the survival rate, mice (10 per group) were infected with MRSA USA300 (2 × 10^8 CFU per mouse). After 2 h of infection, mice were given WYBQ-4 via subcutaneous injection and reinjected at 12-h intervals, whereas mice were treated with ceftaroline fosamil at the same doses and served as positive controls. Mice injected with only MRSA USA300 were used as a negative control. Survival of mice was recorded within 72 h, and survival rates were calculated.

[1] = tested on: methicillin-susceptible Staphylococcus epidermidis (MSSE) 35984; test: MIC by broth microdilution (CLSI); type: cell-based
HepG2 cells = test: Cytotoxicity assay (cell viability); type: cell-based
Procedure: (§1) Cytotoxicity assay. The cytotoxicity of WYBQ-4 against A549, HEK-293T, or HepG2 cells was evaluated with a cell counting kit-8 kit (CCK8; US Everbright, Suzhou, China) according to the manufacturer’s instructions ([41]). In brief, 5 × 10^4 cells were seeded in 96-well plates containing prewarmed medium (100 μL) and incubated for 24 h at 37°C in 5% CO2. Then, various concentrations of WYBQ-4 (0 to 512 μg/mL) were added and further incubated for 24 h. Afterward, the cells were incubated with 100 μL of medium with 10 μL of CCK8 solution (Sigma-Aldrich) for 4 h. Finally, a solution of the purple precipitate dissolved in dimethyl sulfoxide (DMSO) was added to a 96-well plate, and the absorbance was measured at 450 nm.

A549 cells = test: Cytotoxicity assay (cell viability); type: cell-based
Procedure: as §1

HEK-293T cells = test: Cytotoxicity assay (cell viability); type: cell-based
Procedure: as §1

Sequence of PBP2a (P07944 whole entry): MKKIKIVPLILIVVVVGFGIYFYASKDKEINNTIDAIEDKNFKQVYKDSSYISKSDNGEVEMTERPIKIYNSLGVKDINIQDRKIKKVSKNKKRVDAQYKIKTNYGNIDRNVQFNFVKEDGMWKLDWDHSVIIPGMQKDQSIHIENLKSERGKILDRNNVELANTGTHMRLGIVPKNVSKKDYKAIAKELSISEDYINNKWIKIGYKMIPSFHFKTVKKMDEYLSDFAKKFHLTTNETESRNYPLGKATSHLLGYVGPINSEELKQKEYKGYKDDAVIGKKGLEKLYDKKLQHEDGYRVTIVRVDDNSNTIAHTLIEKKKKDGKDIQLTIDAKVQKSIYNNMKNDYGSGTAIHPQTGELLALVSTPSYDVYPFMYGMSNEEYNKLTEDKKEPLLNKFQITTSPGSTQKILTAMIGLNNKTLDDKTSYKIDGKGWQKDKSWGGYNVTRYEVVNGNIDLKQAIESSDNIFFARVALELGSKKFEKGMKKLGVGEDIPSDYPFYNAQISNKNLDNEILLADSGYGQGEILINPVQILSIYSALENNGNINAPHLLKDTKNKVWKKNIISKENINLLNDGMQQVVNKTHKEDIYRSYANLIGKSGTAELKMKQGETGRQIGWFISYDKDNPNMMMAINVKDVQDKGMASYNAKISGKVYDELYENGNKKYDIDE

For `C#CCO[C@@]1(NC(=O)CSc2cccc(C)c2)C(=O)N2C(C(=O)O)=C(CSc3nnnn3C)CSC21` (some centres unmarked) [WYBQ-4], the k2 (PBP2a; PBP2a acylation) was 4.872 ± 0.14 s^–1 × 10^3, the kinact/KI (PBP2a; pH 7, read-out: k2/ks) was 174 ± 8.45 M⁻¹ s⁻¹ and the survival rate (MRSA USA300; 37.5 mg/kg subcutaneous) was 36.67%. For the same compound, the survival rate (MRSA USA300; 75 mg/kg subcutaneous) was 70.00%, the MIC [1] was 0.5 µg/mL (≈ 0.915 µM) and the cell viability (HepG2 cells) was “still viable”. The cell viability (HepG2 cells; HepG2, 0-128 μg/mL) was “did not affect the viability”, the cell viability (A549 cells) was “still viable” and the cell viability (A549 cells; A549, 0-128 μg/mL) was “did not affect the viability”. The cell viability (HEK-293T cells) was “still viable” and the cell viability (HEK-293T cells; HEK-293T, 0-128 μg/mL) was “did not affect the viability”.
